Experimental data published in ChEMBL document CHEMBL1151592, “Synthesis of new 3,4-disubstituted pyrrolidines as thromboxane A2/prostaglandin H2 (TP) receptor antagonists” (Bioorg Med Chem Lett, 1996).

Columns and labels:
[1] = system: Cavia porcellus; assay: Compound was evaluated in vivo for inhibition of U 46619 induced increase in tracheal pressure of guinea pig.; format: functional; conditions: Trachea, read-out: ID50 (the source's name)
[2] = species: Homo sapiens; assay: Compound was evaluated for anti-platelet activity by measuring its inhibitory effect on human platelet rich plasma (PRP) aggregated with U-46,619.; format: functional
[3] = biological target: Thromboxane A2 receptor (Cavia porcellus); assay: Antagonistic activity against TP-receptor by inhibition of U 46619-induced contraction of isolated guinea pig trachea; conditions: read-out: pA2 (converted)

Compound	ED50 [1] [mg/kg]	IC50 [2] [nM]	Kb [3] [nM]
O=C(O)CC/C=C\C[C@@H]1CN(Cc2cccnc2)C[C@@H]1c1ccccc1O	1	–	–
O=C(O)CC/C=C\C[C@@H]1CN(S(=O)(=O)c2ccc(Cl)cc2)C[C@@H]1c1ccccc1O	0.03	4700	1
O=C(O)CC/C=C\C[C@@H]1CO[C@H](c2ccccc2Cl)O[C@@H]1c1ccccc1O	0.0007	–	–
O=C(O)CCC/C=C\C[C@@H]1CN(S(=O)(=O)c2cccc3ccccc23)C[C@@H]1c1ccccc1O	0.08	3600	6.31
O=C(O)CC/C=C\C[C@@H]1CN(S(=O)(=O)c2cccc3cnccc23)C[C@@H]1c1ccccc1O	0.011	1300	–
O=C(O)CC/C=C\C[C@@H]1CN(S(=O)(=O)c2ccc(Cl)cc2)C[C@H]1c1ccccc1O	0.12	–	12.6
O=C(O)CC/C=C\C[C@@H]1CN(S(=O)(=O)c2cccc3ccccc23)C[C@@H]1c1ccccc1O	0.0075	600	–
CC(C)C(=O)N1C[C@@H](C/C=C\CCC(=O)O)[C@@H](c2ccccc2O)C1	0.11	–	–
CCCCCCC(=O)N1C[C@@H](C/C=C\CCC(=O)O)[C@@H](c2ccccc2O)C1	0.43	–	–
O=C(O)CC/C=C\C[C@@H]1CN(S(=O)(=O)c2cccc3cccnc23)C[C@@H]1c1ccccc1O	0.025	3000	–
O=C(O)CC/C=C\C[C@@H]1CN(Cc2ccccc2)C[C@@H]1c1ccccc1O	0.17	–	251
O=C(O)CC/C=C\C[C@@H]1CN(S(=O)(=O)c2cccc3cnccc23)C[C@H]1c1ccccc1O	0.056	–	–
